Measurements as given in ChEMBL document CHEMBL1777762, “Design and synthesis of protein kinase Cα activators based on 'out of pocket' interactions” (Bioorg Med Chem Lett, 2011).
Calls of active or inactive are those of the source. The rule behind the calls is not given here.

Key:
[1] = molecular target: T1, Protein kinase C alpha type (Homo sapiens, UniProt P17252); test: Activation of human recombinant PKCalpha assessed as rate of phosphate incorporation into PepTag C1 peptide at 1 to 100 uM after 40 mins by agarose gel electrophoresis analysis
[2] = molecular target: T1, Protein kinase C alpha type; test: Displacement of [3H]PDBu from human recombinant PKCalpha after 20 mins by liquid scintillation counting
[3] = molecular target: T1, Protein kinase C alpha type; test: Activation of human recombinant PKCalpha assessed as rate of phosphate incorporation into PepTag C1 peptide at 0.0001 uM after 40 mins by agarose gel electrophoresis analysis relative to control
[4] = molecular target: T1, Protein kinase C alpha type; test: Activation of human recombinant PKCalpha assessed as rate of phosphate incorporation into PepTag C1 peptide at 0.01 uM after 40 mins by agarose gel electrophoresis analysis relative to control
[5] = molecular target: T1, Protein kinase C alpha type; test: Activation of human recombinant PKCalpha assessed as rate of phosphate incorporation into PepTag C1 peptide at 0.001 uM after 40 mins by agarose gel electrophoresis analysis relative to control
[6] = molecular target: T1, Protein kinase C alpha type; test: Activation of human recombinant PKCalpha assessed as rate of phosphate incorporation into PepTag C1 peptide at 10 uM after 40 mins by agarose gel electrophoresis analysis relative to control
[7] = molecular target: T1, Protein kinase C alpha type; test: Activation of human recombinant PKCalpha assessed as rate of phosphate incorporation into PepTag C1 peptide at 1 uM after 40 mins by agarose gel electrophoresis analysis relative to control
[8] = molecular target: T1, Protein kinase C alpha type; test: Activation of human recombinant PKCalpha assessed as rate of phosphate incorporation into PepTag C1 peptide at 100 uM after 40 mins by agarose gel electrophoresis analysis relative to control
[9] = molecular target: T1, Protein kinase C alpha type; test: Activation of human recombinant PKCalpha assessed as rate of phosphate incorporation into PepTag C1 peptide at 0.1 uM after 40 mins by agarose gel electrophoresis analysis relative to control

| Structure (SMILES) | Activity [1] | Ki [2] [µM] | further results |
| --- | --- | --- | --- |
| CCCCCCCCCCCCO[C@@H]1[C@H](OC)[C@@H](OC)[C@H](OCC#Cc2cccc3c2C(=O)O[C@]3(CO)COC(=O)C(C(C)(C)C)C(C)(C)C)[C@@H](OC)[C@@H]1OC | Active | 0.6 |  |
| CCCCCCCCCCCCO[C@H]1[C@@H](OC(C)=O)[C@H](OC(C)=O)[C@@H](OCC#Cc2cccc3c2C(=O)O[C@]3(CO)COC(=O)C(C(C)(C)C)C(C)(C)C)[C@H](OC(C)=O)[C@H]1OC(C)=O | Active | 2.34 |  |
| CCCCCCCCCCCCO[C@H]1[C@@H](OCc2ccc(F)cc2)[C@H](OCc2ccc(F)cc2)[C@@H](OCC#Cc2cccc3c2C(=O)O[C@]3(CO)COC(=O)C(C(C)(C)C)C(C)(C)C)[C@H](OCc2ccc(F)cc2)[C@H]1OCc1ccc(F)cc1 | Active | > 20 |  |
| CCCCCCCCCCCCOc1cccc2c1C(=O)O[C@]2(CO)COC(=O)CCCCCCCCCCC |  | > 3 |  |
| CCCCCCCCCCCCO[C@H]1[C@@H](OCc2ccc(C(C)C)cc2)[C@H](OCc2ccc(C(C)C)cc2)[C@@H](OCC#Cc2cccc3c2C(=O)O[C@]3(CO)COC(=O)C(C(C)(C)C)C(C)(C)C)[C@H](OCc2ccc(C(C)C)cc2)[C@H]1OCc1ccc(C(C)C)cc1 | Active | > 20 |  |
| CCCCCCCCCCCCCC(=O)O[C@@H]1[C@@H](C)[C@@]2(O)[C@@H](C=C(CO)C[C@]3(O)C(=O)C(C)=C[C@@H]23)[C@@H]2C(C)(C)[C@]12OC(C)=O |  |  | Activity [3]: 0.58%; Activity [4]: 62.4%; Activity [5]: 11.1%; Activity [6]: 100%; Activity [7]: 85.3%; Activity [8]: 108%; Activity [9]: 80.6% |
| CCCCCCCCCCCCO[C@H]1[C@@H](OCc2ccccc2)[C@H](OCc2ccccc2)[C@@H](OCC#Cc2cccc3c2C(=O)O[C@]3(CO)COC(=O)C(C(C)(C)C)C(C)(C)C)[C@H](OCc2ccccc2)[C@H]1OCc1ccccc1 | Active | > 20 |  |
| CCCCCCCCCCCCO[C@@H]1[C@H](OCC=C(C)C)[C@@H](OC/C=C/C(C)C)[C@H](OCC#Cc2cccc3c2C(=O)O[C@]3(CO)COC(=O)C(C(C)(C)C)C(C)(C)C)[C@@H](OCC=C(C)C)[C@@H]1OCC=C(C)C | Active | > 20 |  |
| CCCCCCCCCCCCOc1cccc2c1C(=O)O[C@]2(CO)COC(=O)C(C(C)(C)C)C(C)(C)C |  | 0.043 |  |
